Here are results for 9 compounds from PMC6222791, “(−)-Asarinin from the Roots of Asarum sieboldii Induces Apoptotic Cell Death via Caspase Activation in Human Ovarian Cancer Cells” (Molecules : A Journal of Synthetic Chemistry and Natural …, 2018).

Data set [1] concerns SKOV3 cells. Briefly: MTT cytotoxicity assay, SKOV3. In kind it is cell-based. Particulars: Homo sapiens, read-out: IC50 (cytotoxicity).
Data set [2] relates to A2780 cells. Briefly: MTT cytotoxicity assay, A2780. Particulars: Homo sapiens, read-out: IC50 (cytotoxicity). It is filed as cell-based. (Tetrazolium dyes change colour on reduction, which living cells bring about.)
Data set [3] has as its system A2780 cells. The data set can be described thus: Cell cycle analysis (PI staining, flow cytometry), A2780. Conditions: A2780, 48 h. In kind it is cell-based, human. How it is done: (§1) The cells were treated with (−)-asarinin (1) and incubated for 48 h. At the time of collection, the cells were harvested and washed twice with ice-cold phosphate buffered saline (PBS). The cells were fixed and permeabilized with 70% ice-cold ethanol at −20 °C for 4 h. The cells were washed once with PBS and resuspended in a staining solution containing propidium iodide (50 µg/mL) and RNase A (5 mg/mL). The cell suspensions were incubated for 30 min at room temperature in a dark place. After 30 min the suspensions were analyzed by fluorescence-activated cell sorting (FACS) cater-plus flow cytometry (guava easy cyte^TM, Merk Millipore, Darmstadt, Germany) using 5000 cells per group.

The subject of data set [4] is caspase-9. The data set can be described thus: Western blot caspase activation, SKOV3. It is filed as cell-based, human. Conditions: SKOV3, 48 h, procaspase level by Western blot. How it is done:
(§2) The cells were treated with (−)-asarinin (1) and incubated for 48 h. The cells were rinsed twice with ice-cold PBS and lysed with protein lysis buffer (Intron Biotechnology, Seoul, Korea) containing protease inhibitors (0.5 mM PMSF and 5 μg/mL aprotinin). The lysates were mixed with 5X sodium dodecyl sulfate (SDS) sample buffer and boiled for 5 min for denaturation. Total protein was run on 10–12% SDS-PAGE gels and electrotransferred onto a polyvinylidene difluoride (PVDF) membrane. The membrane was immunoblotted using specific primary antibodies overnight at 4 °C following blocking with 5% non-fat dry milk for 30 min–1 h. After washing, the membrane was incubated with horseradish peroxidase-conjugated secondary antibody (1:1000–2000) at room temperature for 1−2 h. After washing, immunepositive bands were visualized using an ECL chemiluminescent system and analyzed by Image Quant LAS-4000 (Fujifilm Life science, Tokyo, Japan). Anti-caspase-3 and b-actin antibodies were obtained from Santa Cruz Biotechnology (Santa Cruz, CA, USA). Caspase-9 antibody was purchased from Cell Signaling (Beverly, MA, USA). Caspase-8 antibody was obtained from BD Biosciences (San Jose, CA, USA).

The subject of data set [5] is caspase-8. Briefly: Western blot caspase activation, SKOV3. It is filed as cell-based, human. Conditions: SKOV3, 48 h, procaspase level by Western blot. How it is done:
as §2

The test system of data set [6] is caspase-3. The data set can be described thus: Western blot caspase activation, SKOV3. In kind it is cell-based, human. Conditions: SKOV3, 48 h, procaspase level by Western blot. How it is done: as §2
(Immunoblotting shows a protein as a band on a membrane.)

In data set [7] the test system is caspase-9. The data set can be described thus: Western blot caspase activation, A2780. Conditions: A2780, 48 h, procaspase level by Western blot. It is filed as cell-based, human. How it is done: as §2
In data set [8] the test system is caspase-8. The data set can be described thus: Western blot caspase activation, A2780. In kind it is cell-based, human. Particulars: A2780, 48 h, procaspase level by Western blot. How it is done: as §2
The subject of data set [9] is caspase-3. Briefly: Western blot caspase activation, A2780. Particulars: A2780, 48 h, procaspase level by Western blot. In kind it is cell-based, human. How it is done:
as §2

The subject of data set [10] is human leukemia HL-60 cells. More on the design: method as in PMID 11507740. Particulars: cited from earlier work.
Data set [11] has as its system SKOV3 cells. Briefly: PI/Annexin V-FITC double staining, SKOV3. It is filed as cell-based, human. Particulars: SKOV3, 48 h, increased by up to. How it is done: (§3) Annexin V- FITC was obtained from BD Biosciences (San Jose, CA, USA). The cells were treated with (−)-asarinin (1) and incubated for 48 h. The cells were rinsed twice with ice-cold PBS and suspended with 100 μL of binding buffer (10 mM HEPES/NaOH, 140 mM Nacl, 2.5 mM CaCl2, PH 7.4). A total of 5 μL of FITC-conjugated annexin V and 5 μL of PI ([…]) were added into the cell suspension, and the mixture was incubated in a dark place at room temperature for 15 min. The cells were analyzed using FACS cater-plus flow cytometry (guava easy cyte^TM); at least 10,000 cells per each group were counted.

A further data set can be described thus: in vitro. Conditions: human. How it is done: (§4) Human ovarian cancer cell lines (A2780 and SKOV3 cells) were obtained from the American Type Culture Collection (ATCC), and immortalized ovarian surface epithelial cell lines (IOSE80PC) were provided by Dr. N. Auersperg (University of British Columbia, Vancouver, British Columbia, Canada) and Dr. A. Godwin (Fox Chase Cancer Center, Philadelphia, PA, USA).
(§5) A MTT assay was performed to evaluate the cell viability. The MTT was obtained from Molecular Probes Inc. (Eugene, OR, USA). Briefly, the cells (1.0 × 10^5/well) were seeded in a 96-well plate and incubated for 24 h. […] MTT solution was added into each well (final concentration; 0.5 mg/mL) and the plates were incubated for an additional 4 h. The medium was removed and 50 μL of dimethyl sulfoxide (DMSO) was added. The optical density was measured at 540 nm using a microplate spectrophotometer (SpectraMax; Molecular Devices, Sunnyvale, CA, USA). To investigate the involvement of caspases in asarinin (1)-induced cell death, a MTT assay was also performed using caspase inhibitors. The cells were pretreated with caspase inhibitors (50 μM) for 30 min, and treated with (−)-asarinin (1) (A2780, 40 μM; and SKOV3, 60 μM) for 48 h. Caspase-3 inhibitor z-DEVD-fmk, caspase-8 inhibitor z-IETD-fmk, and caspase-9 inhibitor z-LEHD-fmk were purchased from Calbiochem (Bad Soden, Germany).

Another data set has as its system IOSE80PC cells. Briefly: in vitro. How it is done:
as §4, §5

Data set [12] concerns A2780 cells. Briefly: PI/Annexin V-FITC double staining, A2780. It is filed as cell-based, human. Conditions: A2780, 48 h, increased by up to. How it is done: as §3
Another data set deals with EBV-EA activation. More on the design: method as in PMID 9255419, doi:10.1016/S1572-5995(00)80047-2. Conditions: Raji cells; cited from earlier work.
Data set [13] deals with SKOV3 cells. The data set can be described thus: Cell cycle analysis (PI staining, flow cytometry), SKOV3. In kind it is cell-based, human. Particulars: SKOV3, 48 h. How it is done: as §1
(In general: In flow cytometry, cells or beads pass a laser one at a time.)

Data set [14] deals with SKOV3 cells. Briefly: MTT assay with caspase inhibitors on (−)-asarinin (1)-induced cell death, SKOV3. It is filed as cell-based, human. Particulars: SKOV3, inhibitor 50 μM pretreated 30 min, then (−)-asarinin (1) 60 μM 48 h.
For data set [15], the system named is A2780 cells. Briefly: MTT assay with caspase inhibitors on (−)-asarinin (1)-induced cell death, A2780. It is filed as cell-based, human. Conditions: A2780, inhibitor 50 μM pretreated 30 min, then (−)-asarinin (1) 40 μM 48 h.
Setting [16] is: IOSE80PC immortalized ovarian surface epithelial cells.

Like-named read-outs stand apart in the source and are kept apart here. A value given as a limit tells only on which side of the number the result lay.

Usually IC50 stands for the point on the concentration scale where inhibition reaches its midpoint. On to `c1cc2c(cc1[C@H]1OC[C@H]3[C@@H]1CO[C@H]3c1ccc3c(c1)OCO3)OCO2` [Compound 1, (−)-asarinin], for which the concentration for half-maximal inhibition (IC50) in the data set on SKOV3 cells [1] (SK-OV-3, 48 h) was 60.9 ± 5.01 µM; in the data set with A2780 cells [2] (A2780, 48 h), 38.5 ± 2.78 µM. Also, the cell cycle arrest result with A2780 cells [3] and in the data set on SKOV3 cells [13] was “failed to induce cell cycle arrest” each time. Also, the “activation of caspase-9” value in the data set with caspase-9 [4] and in the data set on caspase-9 [7] was “markedly stimulated the activation” throughout. Moreover, the “activation of caspase-8” value in the data set on caspase-8 [5] and with caspase-8 [8] was “markedly stimulated the activation” each time. The “activation of caspase-3” value in the data set on caspase-3 [6] and with caspase-3 [9] was “markedly stimulated the activation” in each case. In addition, the DNA synthesis entry in data set [10] is given as “inhibited DNA synthesis”. Also, the “percentage of Annexin V-FITC positive/PI negative cells” value in the data set on SKOV3 cells [11] was at most 48%; with A2780 cells [12], “up to 43%”. The same compound yielded a 50% inhibitory concentration (IC50) at 48 h in “in vitro” above 200 µM. Further, in the data set with IOSE80PC cells, the “cytotoxicity (in words)” value is recorded as “did not show any cytotoxicity”. The “effect on EBV-EA activation” value in the data set on EBV-EA activation is recorded as “significant inhibitory effect”.
Turning to z-IETD-fmk, the “effect on (−)-asarinin (1)-induced cell death” value (“effect on (−)-asarinin” below) in the data set with SKOV3 cells [14] and in the data set on A2780 cells [15] was “considerably attenuated” each time.
As for `COc1cc([C@@H]2OC[C@@H]3[C@H]2CO[C@H]3c2ccc3c(c2)OCO3)ccc1O` [Compound 2, (−)-pluviatilol], the IC50 was 174 ± 9.42 µM with SKOV3 cells [1] (SK-OV-3, SKOV3, MTT, 48 h) and 102 ± 13.6 µM in the data set on A2780 cells [2] (A2780, MTT, 48 h). In addition, the half-inhibitory concentration (IC50) at 48 h in the data set “in vitro” (setting [16]) was found to be 179 ± 3.3 µM.
Turning to `CCC(=O)c1cc2c(cc1O)OCO2` [Compound 3, kakuol], the IC50 with SKOV3 cells [1] (SK-OV-3, 48 h) is above 200 µM; with A2780 cells [2] (A2780, 48 h) it was above 200 µM. In addition, in “in vitro”, the half-maximal inhibitory concentration (IC50) at 48 h was above 200 µM.
In the case of z-DEVD-fmk, the “effect on (−)-asarinin” value with SKOV3 cells [14] and in the data set on A2780 cells [15] was “considerably attenuated” throughout.
In the case of `C/C=C\CC/C=C/C=C/C(=O)NCC(C)C` [Compound 7, (2E,4E,8Z)-N-isobutyldeca-2,4,8-trienamide], the 50% inhibitory concentration (IC50) was above 200 µM in the data set with SKOV3 cells [1] (SK-OV-3, SKOV3, MTT, 48 h) and above 200 µM with A2780 cells [2] (A2780, MTT, 48 h). Further, in “in vitro” (setting [16]), the half-inhibitory concentration (IC50) at 48 h was above 200 µM.
Consider `CCC(=O)c1cc2c(cc1OC)OCO2` [Compound 4, methylkakuol], for which the IC50 with SKOV3 cells [1] (SK-OV-3, 48 h) was above 200 µM; with A2780 cells [2] (A2780, 48 h) it was above 200 µM. The compound also had an IC50 at 48 h in “in vitro” above 200 µM.
On to `C/C=C/C=C\CC/C=C/C=C/C(=O)NCC(C)C` [Compound 8, (2E,4E,8Z,10E/Z)-N-isobutyldodeca-2,4,8,10-tetraenamide], for which the half-inhibitory concentration (IC50) in the data set with SKOV3 cells [1] (SK-OV-3, SKOV3, MTT, 48 h) is above 200 µM; with A2780 cells [2] (A2780, MTT, 48 h), 101 ± 10.3 µM. The compound also registered an IC50 at 48 h in the data set “in vitro” (setting [16]) above 200 µM.
z-LEHD-fmk: the “effect on (−)-asarinin” value in the data set on SKOV3 cells [14] and in the data set on A2780 cells [15] was “considerably attenuated” in each case.
